Measured values published in ChEMBL document CHEMBL1201862, “PubChem BioAssay data set” (2004).
Active and inactive are the calls of the source.

Columns and labels:
[1] = target: T1, Beta Lactamase (Pseudomonas aeruginosa, UniProt Q932Y6); test: BLA reporter interference, concentration series – BLA reporter cells, FRET fluorescence, artefact control for NOD2-RIPK2 interaction inhibitor project, dose response (AID 651552); assay type: functional, cell-based
[2] = tested on: CHO; test: CHO cell viability loss, potency – luminescence, cytotoxicity control for TLR9-MyD88 binding inhibitor project, dose response (AID 588339); assay type: functional, cell-based, hamster; details: Cricetulus griseus;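 also: CHO cells stably coexpressing TLR9 and MyD88 fusions from primary screen; compound exposure lasted 48 hours before viability readout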
[3] = non-specific 3'UTR reporter inhibition in Clone20-Shn3RL – cell-based, Renilla luciferase, cherry-picked, counter-screen for Shn3 inhibitor project, dose response (AID 624133); assay type: functional
[4] = reduction of Shn3 3'UTR-driven luciferase in osteoblasts – cell-based, Clone20 osteoblasts, firefly luciferase, cherry-picked, dose response (AID 624132); assay type: functional;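 also: firefly luciferase luminescence from reporter carrying the Shn3 3'UTR in osteoblasts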
[5] = target: T2, Polyadenylate-binding protein 1 (Homo sapiens, UniProt P11940); test: MLLE domain peptide-binding blockers, IC50 – biochemical, fluorescence polarization, FITC-PAM2 peptide, dose response (AID 602259); assay type: functional; details: read-out: IC50_Mean
T2 sequence (P11940 whole entry, the tested form may be a part): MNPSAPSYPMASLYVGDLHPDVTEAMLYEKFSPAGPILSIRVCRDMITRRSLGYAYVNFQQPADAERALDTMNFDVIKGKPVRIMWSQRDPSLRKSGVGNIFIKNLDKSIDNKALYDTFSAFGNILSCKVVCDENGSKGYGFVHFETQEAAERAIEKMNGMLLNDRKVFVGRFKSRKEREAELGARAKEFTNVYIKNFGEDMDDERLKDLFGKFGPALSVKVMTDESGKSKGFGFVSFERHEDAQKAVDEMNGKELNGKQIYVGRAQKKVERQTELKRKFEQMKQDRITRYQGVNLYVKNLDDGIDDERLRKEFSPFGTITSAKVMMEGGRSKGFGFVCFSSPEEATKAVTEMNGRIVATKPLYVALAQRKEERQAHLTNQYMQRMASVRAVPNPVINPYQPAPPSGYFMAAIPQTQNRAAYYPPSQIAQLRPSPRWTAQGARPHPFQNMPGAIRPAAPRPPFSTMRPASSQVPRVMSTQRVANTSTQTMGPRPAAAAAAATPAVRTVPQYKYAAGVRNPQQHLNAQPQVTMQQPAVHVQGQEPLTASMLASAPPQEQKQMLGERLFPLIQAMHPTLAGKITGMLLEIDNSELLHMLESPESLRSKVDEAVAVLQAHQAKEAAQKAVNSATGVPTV

[6] = target: Beta-galactosidase (Escherichia coli, UniProt Q8VNN2); test: detection-enzyme interference by beta-gal modulators – biochemical, E. coli enzyme, set 3, artefact control for CCR6 antagonist project, dose response (AID 504712); assay type: functional
Chain of Beta-galactosidase (Q8VNN2 whole entry): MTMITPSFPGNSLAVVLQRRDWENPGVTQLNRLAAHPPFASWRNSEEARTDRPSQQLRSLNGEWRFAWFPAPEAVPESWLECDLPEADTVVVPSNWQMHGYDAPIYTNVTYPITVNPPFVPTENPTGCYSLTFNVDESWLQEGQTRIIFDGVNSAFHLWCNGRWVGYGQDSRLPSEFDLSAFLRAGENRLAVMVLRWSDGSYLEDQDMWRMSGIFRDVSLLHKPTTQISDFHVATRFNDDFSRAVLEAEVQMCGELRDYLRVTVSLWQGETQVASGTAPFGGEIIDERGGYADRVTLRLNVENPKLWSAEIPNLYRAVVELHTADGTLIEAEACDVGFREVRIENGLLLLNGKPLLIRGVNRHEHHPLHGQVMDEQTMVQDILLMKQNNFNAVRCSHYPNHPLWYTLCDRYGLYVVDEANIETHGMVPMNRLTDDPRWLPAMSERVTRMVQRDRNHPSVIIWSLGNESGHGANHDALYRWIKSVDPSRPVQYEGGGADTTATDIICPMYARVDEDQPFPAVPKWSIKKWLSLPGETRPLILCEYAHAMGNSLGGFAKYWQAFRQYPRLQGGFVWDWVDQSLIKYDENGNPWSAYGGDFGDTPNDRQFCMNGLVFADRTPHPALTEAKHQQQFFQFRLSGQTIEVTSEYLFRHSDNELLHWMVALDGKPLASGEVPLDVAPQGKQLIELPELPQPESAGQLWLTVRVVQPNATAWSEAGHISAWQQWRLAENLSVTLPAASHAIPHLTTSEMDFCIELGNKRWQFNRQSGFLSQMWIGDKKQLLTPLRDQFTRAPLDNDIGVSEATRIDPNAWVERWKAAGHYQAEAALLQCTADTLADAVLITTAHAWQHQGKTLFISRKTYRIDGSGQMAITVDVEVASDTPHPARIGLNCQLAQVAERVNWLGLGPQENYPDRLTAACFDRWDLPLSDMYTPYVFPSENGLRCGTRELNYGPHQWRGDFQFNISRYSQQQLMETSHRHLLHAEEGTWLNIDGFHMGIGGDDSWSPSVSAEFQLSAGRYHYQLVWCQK

[7] = target: T1, Beta Lactamase; test: BLA reporter interference, concentration series – BLA reporter cells, FRET fluorescence, artefact control for TLR9-MyD88 binding inhibitor project, dose response (AID 588341); assay type: cell-based;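 also: cell based assay in CHO-K1 cells stably expressing beta-lactamase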
[8] = Fluorescence-based cell-based high throughput dose response assay for inhibitors of the interaction of nucleotide-binding oligomerization domain containing 2 (NOD2) and the receptor-interacting serine-threonine kinase 2 (RIPK2).; assay type: functional; details: Homo sapiens
[9] = target: T2, Polyadenylate-binding protein 1; test: MLLE binding blockers, Cy5 peptide tracer – biochemical, fluorescence polarization, Cy5-PAM2 peptide, secondary, miRNA deadenylation inhibitor project, dose response (AID 602260); assay type: functional; details: read-out: IC50_Mean
[10] = target: Heat shock protein HSP 90-alpha (Homo sapiens, UniProt P07900); assay type: functional, organism-based
[11] = loss of viability in HepG2 cells – cell-based, CellTiter-Glo, cherry-picked, cytotoxicity control for Shn3 inhibitor project, dose response (AID 624134); assay type: functional
[12] = target: T3, Orexin/Hypocretin receptor type 1 (Homo sapiens, UniProt O43613); test: Homogeneous Time Resolved Fluorescence (HTRF)-based cell-based high throughput dose response assay for antagonists of the orexin 1 receptor (OX1R; HCRTR1). [Related pubchem assays (depositor defined):AID434989, AID435008, AID463079, AID485270, AID492963, AID492964, AID492965, AID493232, AID504717, AID504718]; assay type: functional
T3 sequence (O43613 whole entry): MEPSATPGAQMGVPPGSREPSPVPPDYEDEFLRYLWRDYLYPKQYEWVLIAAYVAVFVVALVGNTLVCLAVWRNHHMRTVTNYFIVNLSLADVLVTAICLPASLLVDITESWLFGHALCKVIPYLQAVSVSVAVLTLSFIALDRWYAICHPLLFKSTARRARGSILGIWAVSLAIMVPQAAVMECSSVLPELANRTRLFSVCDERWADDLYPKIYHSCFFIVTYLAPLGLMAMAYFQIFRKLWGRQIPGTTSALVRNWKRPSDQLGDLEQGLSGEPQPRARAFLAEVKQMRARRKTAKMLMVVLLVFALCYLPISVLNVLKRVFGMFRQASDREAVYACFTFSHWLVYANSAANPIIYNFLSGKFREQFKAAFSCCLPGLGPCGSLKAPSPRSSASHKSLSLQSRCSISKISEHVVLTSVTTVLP

[13] = target: Cytochrome P450 2C9 (Homo sapiens, UniProt P11712)
Chain of Cytochrome P450 2C9 (P11712 whole entry): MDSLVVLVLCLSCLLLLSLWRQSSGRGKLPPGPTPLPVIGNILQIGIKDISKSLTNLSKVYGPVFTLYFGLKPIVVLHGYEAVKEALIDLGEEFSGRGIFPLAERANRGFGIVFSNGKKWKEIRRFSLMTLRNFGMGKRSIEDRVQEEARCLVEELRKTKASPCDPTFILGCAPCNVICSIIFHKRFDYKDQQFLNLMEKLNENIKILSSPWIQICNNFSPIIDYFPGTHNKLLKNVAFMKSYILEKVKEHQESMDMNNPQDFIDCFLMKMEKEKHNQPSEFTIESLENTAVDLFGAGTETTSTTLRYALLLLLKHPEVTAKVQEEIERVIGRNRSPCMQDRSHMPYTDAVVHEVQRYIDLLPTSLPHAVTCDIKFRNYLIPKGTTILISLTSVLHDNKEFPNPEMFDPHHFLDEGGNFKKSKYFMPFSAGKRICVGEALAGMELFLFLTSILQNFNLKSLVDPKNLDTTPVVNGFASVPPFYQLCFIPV

[14] = (§1) Counterscreen for antagonists of the orexin 1 receptor (OX1R; HCRTR1): Fluorescence-based cell-based high throughput dose response assay to identify antagonists of the parental CHO cell line. [Related pubchem assays (depositor defined):AID434989, AID435008, AID463079, AID485270, AID492963, AID492964, AID492965, AID493232, AID504699, AID504701]; assay type: functional
[15] = target: T3, Orexin/Hypocretin receptor type 1; test: Fluorescence-based cell-based high throughput dose response assay for antagonists of the orexin 1 receptor (OX1R; HCRTR1). [Related pubchem assays (depositor defined):AID434989, AID435008, AID463079, AID485270, AID492963, AID492964, AID492965, AID493232, AID504717, AID504718]; assay type: functional
[16] = tested on: CHO-K1; test: as §1, with “Homogeneous time resolved fluorescence (HTRF)-based” for “Fluorescence-based”, “cell-based” for “cell-based high throughput”, “CHO-K1” for “CHO”; assay type: functional; details: Cricetulus griseus;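 also: potency for inhibition of ATP-stimulated IP1 production as antagonists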
[17] = target: T4, Orexin receptor type 2 (Homo sapiens, UniProt O43614); test: Counterscreen assay for antagonists of the orexin 1 receptor (OX1R; HCRTR1): Fluorescence-based cell-based dose response assay for antagonists of the orexin 2 receptor (OX2R; HCRTR2), run by assay provider.; assay type: functional
T4 sequence (O43614 whole entry): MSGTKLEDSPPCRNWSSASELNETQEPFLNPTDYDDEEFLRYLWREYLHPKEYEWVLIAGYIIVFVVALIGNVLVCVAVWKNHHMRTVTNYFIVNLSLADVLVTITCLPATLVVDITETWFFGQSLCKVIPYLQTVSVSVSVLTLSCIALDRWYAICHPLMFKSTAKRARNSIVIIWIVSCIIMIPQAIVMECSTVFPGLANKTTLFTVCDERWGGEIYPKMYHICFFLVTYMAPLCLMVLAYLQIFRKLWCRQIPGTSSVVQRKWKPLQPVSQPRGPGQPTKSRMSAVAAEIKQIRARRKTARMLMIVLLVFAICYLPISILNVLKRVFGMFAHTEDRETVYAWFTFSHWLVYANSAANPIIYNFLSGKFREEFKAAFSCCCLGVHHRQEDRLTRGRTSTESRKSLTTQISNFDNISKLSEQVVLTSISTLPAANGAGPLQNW

[18] = target: T4, Orexin receptor type 2; test: Counterscreen assay for antagonists of the orexin 1 receptor (OX1R; HCRTR1): Homogeneous Time Resolved Fluorescence (HTRF)-based cell-based dose response assay for antagonists of the orexin 2 receptor (OX2R; HCRTR2), run by assay provider.; assay type: functional
[19] = Mcl1-dependent cancer cell viability – HMC-1-8 cells, luminescence, dry powder, selectivity assay for A1 inhibitor project, dose response (AID 504415); assay type: functional, cell-based; details: Homo sapiens

T1 sequence (Q932Y6 whole entry, the tested form may be a part): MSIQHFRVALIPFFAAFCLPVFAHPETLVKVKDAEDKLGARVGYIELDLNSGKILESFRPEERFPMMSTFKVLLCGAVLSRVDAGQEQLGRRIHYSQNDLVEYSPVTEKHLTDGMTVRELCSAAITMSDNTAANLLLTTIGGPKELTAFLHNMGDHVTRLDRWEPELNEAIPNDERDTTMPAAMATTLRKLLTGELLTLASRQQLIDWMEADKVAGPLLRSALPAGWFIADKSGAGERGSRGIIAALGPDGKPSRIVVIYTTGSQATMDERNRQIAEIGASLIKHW

O=C(c1ccccc1)c1ccccc1N1C(=O)C=CC1=O
inactive: IC50 [1] 15.5 µM | IC50 [5] > 66 µM | IC50 [6] > 66.6 µM | IC50 [7] 15.3 µM | IC50 [9] > 66 µM
active: IC50 [2] 2.78 µM | AC50 [3] 12.5 µM | AC50 [4] 16.7 µM | IC50 [8] 1.99 µM | AC50 [10] 2.21 µM | AC50 [11] 24.6 µM

CCn1c(SCC(=O)c2ccc3ccccc3c2)nnc1-c1cccs1
inconclusive: AC50 [13] 17.8 µM
inactive: IC50 [14] > 49.8 µM | IC50 [15] 17.6 µM | IC50 [16] > 66.2 µM | IC50 [17] > 88.8 µM | IC50 [18] > 50 µM
active: IC50 [12] 6.66 µM

Cn1c(=O)c([N+](=O)[O-])c(Nc2ccc(Cl)cc2)c2ccccc21
inactive: AC50 [19] > 350 µM
